{
  "source": "patent US6303591A",
  "about": "“21-hydroxy-6,19-oxidoprogesterone (21OH-6OP) and its use as medicament for treating excess of glucocorticoids” (Applied Research Systems ARS Holding NV, priority 1997, dated 2001)",
  "key": {"[1]": {"target": "T1, uterus PR (progesterone receptor) (Rattus norvegicus, UniProt Q63449)", "T1 sequence (Q63449 1-923)": "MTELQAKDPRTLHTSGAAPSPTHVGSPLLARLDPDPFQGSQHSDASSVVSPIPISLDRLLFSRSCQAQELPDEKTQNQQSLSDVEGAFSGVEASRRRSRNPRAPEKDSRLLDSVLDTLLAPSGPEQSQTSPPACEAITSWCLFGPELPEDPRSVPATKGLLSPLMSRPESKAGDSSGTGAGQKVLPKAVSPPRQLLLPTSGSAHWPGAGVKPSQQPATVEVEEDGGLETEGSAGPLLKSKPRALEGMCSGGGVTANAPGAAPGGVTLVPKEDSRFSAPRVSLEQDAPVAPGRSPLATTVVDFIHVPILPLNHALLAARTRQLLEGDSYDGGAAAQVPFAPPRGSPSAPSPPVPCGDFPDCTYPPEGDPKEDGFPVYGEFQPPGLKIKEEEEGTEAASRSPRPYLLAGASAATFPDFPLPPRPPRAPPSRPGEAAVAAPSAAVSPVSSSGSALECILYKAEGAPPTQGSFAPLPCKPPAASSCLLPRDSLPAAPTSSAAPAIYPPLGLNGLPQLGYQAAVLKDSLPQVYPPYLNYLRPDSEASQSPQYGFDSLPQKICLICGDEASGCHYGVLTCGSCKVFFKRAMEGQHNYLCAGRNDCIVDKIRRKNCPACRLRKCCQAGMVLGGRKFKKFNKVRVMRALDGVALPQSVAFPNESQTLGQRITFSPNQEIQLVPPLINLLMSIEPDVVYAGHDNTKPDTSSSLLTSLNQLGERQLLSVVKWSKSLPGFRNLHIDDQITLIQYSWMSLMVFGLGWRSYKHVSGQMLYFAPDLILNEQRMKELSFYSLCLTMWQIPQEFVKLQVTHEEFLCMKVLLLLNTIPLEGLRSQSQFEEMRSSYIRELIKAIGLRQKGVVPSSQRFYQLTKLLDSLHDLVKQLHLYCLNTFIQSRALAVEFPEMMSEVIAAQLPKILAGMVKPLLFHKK", "assay": "(^3 H)-P4 binding to uterus cytosols (PR)", "details": "uterus cytosol, 12 h at 0° C., 1 μM cortisol", "description": "Binding Assay: Adrenalectomized male Sprague-Dawley rats were bled to death by heart puncture. Cold 0.9% NaCI was injected profusely through the aorta until organs were completely blanched. Thymuses were used as a source of GR and kidneys as a source of MR. Homogenization and incubation conditions were performed as previously described, (14) and (15), respectively. Briefly, homogenates performed in cold TEGM buffer at pH 7.4 (0.1 M Tris-HCl, 10 mM EDTA, 10 mM α-mercaptoethanol, 20 mM Na2 MoO4, 25% glycerol, 0.1 mM PMSF, 2.0 TIU/ml aprotinin and 1 mg% Leupeptin) were centrifuged at 37,000 rev. for 30 min at 0° C. Supernatants from this centrifugation are referred to as \"cytosol\". […] (^3 H)-P4 binding to uterus PR was assayed on immature female rats according to Jordan et al (16).\nRelative binding affinity (RBA) for partially purified CBG was determined by steroid competition for (^3 H)-B binding as described previously (14)."}, "[2]": {"system": "GR", "details": "background; cited from earlier work"}, "[3]": {"system": "MR", "details": "background; cited from earlier work"}},
  "data": [
    {"smiles": "CC(=O)[C@H]1CC[C@H]2[C@@H]3CCC4=CC(=O)CC[C@]4(C)[C@H]3CC[C@]12C", "note": "[P4, progesterone]", "values": [
      {"measurement": "displacement of (^3 H)-P4 from uterus receptors / cross-reaction with PR", "setting": "[1]", "value": "able to displace the tracer efficiently"},
      {"measurement": "cross-reaction with GR", "setting": "[2]", "value": "exhibits cross-reaction with both MR and GR"},
      {"measurement": "cross-reaction with MR", "setting": "[3]", "value": "exhibits cross-reaction with both MR and GR"}
    ]}
  ]
}
